{"source": "patent US20100197800A1", "about": "“Treatment and/or Prevention of Presbycusis by Modulation of Metabotropic Glutamate Receptor 7” (priority 2007, published 2010)", "key": {"mGluR7 [1]": {"biological_target": "T1, mGluR7 (Homo sapiens, UniProt Q14831)", "T1 sequence (Q14831 35-915)": "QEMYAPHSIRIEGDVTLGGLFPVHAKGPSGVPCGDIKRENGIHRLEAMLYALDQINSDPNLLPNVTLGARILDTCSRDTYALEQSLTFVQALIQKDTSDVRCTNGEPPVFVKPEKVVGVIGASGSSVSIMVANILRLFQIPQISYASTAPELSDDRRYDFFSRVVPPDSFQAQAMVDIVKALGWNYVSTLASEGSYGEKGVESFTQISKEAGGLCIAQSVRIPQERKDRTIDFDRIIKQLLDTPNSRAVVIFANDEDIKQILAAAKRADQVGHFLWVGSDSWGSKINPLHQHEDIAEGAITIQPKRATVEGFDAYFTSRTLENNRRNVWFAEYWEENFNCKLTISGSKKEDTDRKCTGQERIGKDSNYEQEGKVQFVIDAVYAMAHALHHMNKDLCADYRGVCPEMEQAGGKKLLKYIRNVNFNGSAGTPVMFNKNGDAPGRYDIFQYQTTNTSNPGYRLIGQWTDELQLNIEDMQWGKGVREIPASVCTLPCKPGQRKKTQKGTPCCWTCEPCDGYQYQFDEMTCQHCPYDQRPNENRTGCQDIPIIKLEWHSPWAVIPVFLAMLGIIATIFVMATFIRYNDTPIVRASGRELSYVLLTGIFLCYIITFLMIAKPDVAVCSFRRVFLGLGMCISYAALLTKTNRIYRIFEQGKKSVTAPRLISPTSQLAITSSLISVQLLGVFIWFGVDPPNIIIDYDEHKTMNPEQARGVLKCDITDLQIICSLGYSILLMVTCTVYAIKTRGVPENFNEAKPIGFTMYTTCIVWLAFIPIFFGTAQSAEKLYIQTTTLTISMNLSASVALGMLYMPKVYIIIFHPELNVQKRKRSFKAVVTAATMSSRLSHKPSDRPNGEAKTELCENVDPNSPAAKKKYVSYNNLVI", "design": "host or cells: CHO cells, transfected", "conditions": "CHO cells coexpressing human mGluR7 with G15; cited from earlier work"}, "rat mGluR7 [2]": {"biological_target": "T2, rat mGluR7 (Rattus norvegicus, UniProt P35400)", "T2 construct": "host or cells: CHO cells, transfected", "T2 sequence (P35400 35-915)": "as the sequence (Q14831 35-915) above, with N420H, S454T, A486S, D544N counted along it", "conditions": "cited from earlier work"}, "rat mGluR7 [3]": {"biological_target": "T2, rat mGluR7", "conditions": "CHO cells expressing rat mGluR7; read-out: IC50, inhibition of L-AP4-induced inhibition of forskolin-stimulated cAMP accumulation; cited from earlier work"}, "human mGluR7b": {"biological_target": "human mGluR7b (Homo sapiens, UniProt Q14831)", "conditions": "agonist; cited from earlier work"}, "mGluR4a": {"biological_target": "mGluR4a (Homo sapiens, UniProt Q14833)", "conditions": "agonist; cited from earlier work"}, "mGluR7 [4]": {"biological_target": "T1, mGluR7", "conditions": "through an allosteric site; cited from earlier work"}, "mGluR7 [5]": {"biological_target": "T3, mGluR7 (Mus musculus, UniProt Q68ED2)", "T3 construct": "host or cells: whole animals (in vivo), endogenous receptor", "T3 sequence (Q68ED2 35-915)": "as the sequence (Q14831 35-915) above, with S454T, A486P, D544N counted along it", "conditions": "cited from earlier work"}, "presbycusis": {"tested_on": "presbycusis", "experiment": "treatment of patients with presbycusis, hearing threshold", "type": "in vivo, human", "conditions": "for hearing threshold left ear / hearing threshold right ear: after 14 days", "procedure": "A person presents with symptoms of presbycusis, including moderate loss of higher frequency (above 2000 Hz) hearing (50 decibel threshold) in both ears. The person is administered two drops per ear twice daily of a topical otic formulation comprising 10 ug/ml of AMN082 in a phosphate-buffered saline and further comprising 0.25% the carboxyvinyl water swellable gelling agent, Carbopol 934P; i.e., about 1 ug nGluR7 agonist per ear per dosing. After 14 days, the patient is tested by an audiologist. The threshold is lowered to 35 decibels right ear and 40 decibels left ear.\nA person presents with symptoms of presbycusis, including loss of moderately high frequency (above 1000 Hz) hearing (40 decibel threshold right ear and 35 decibel threshold left ear). The person is administered an oral formulation 4 times per day comprising 2 ug per dose of AMN082. The extended release capsule comprises a matrix of 10% by weight hydroxypropyl methylcellulose (e.g., Methocel®; Dow Chemical Company, U.S.A), and 50% by weight of a cornstarch filler. After 14 days, the threshold is lowered to 35 decibels right ear and 25 decibels left ear.\nA person presents with symptoms of presbycusis, including loss of hearing in the 500 to above 2000 Hz range. The person is implanted with an Alset® osmotic pump adapted for cochlear delivery; see e.g., Richardson, R. T., Noushi, F., O'Leary, S. Inner ear therapy for neural preservation. AUDIOLOGY AND NEURO-OTOLOGY 2006; 11(6): 343-356. The pump is supplied with an aqueous sterile solution comprising AMN082. The pump delivers a dose of 10 ug/hour of the mGluR7 modulator. After 10 days, hearing is improved in both ears."}, "mGluR8 [6]": {"biological_target": "T4, mGluR8 (Homo sapiens, UniProt O00222)", "T4 sequence (O00222 34-908, species assumed)": "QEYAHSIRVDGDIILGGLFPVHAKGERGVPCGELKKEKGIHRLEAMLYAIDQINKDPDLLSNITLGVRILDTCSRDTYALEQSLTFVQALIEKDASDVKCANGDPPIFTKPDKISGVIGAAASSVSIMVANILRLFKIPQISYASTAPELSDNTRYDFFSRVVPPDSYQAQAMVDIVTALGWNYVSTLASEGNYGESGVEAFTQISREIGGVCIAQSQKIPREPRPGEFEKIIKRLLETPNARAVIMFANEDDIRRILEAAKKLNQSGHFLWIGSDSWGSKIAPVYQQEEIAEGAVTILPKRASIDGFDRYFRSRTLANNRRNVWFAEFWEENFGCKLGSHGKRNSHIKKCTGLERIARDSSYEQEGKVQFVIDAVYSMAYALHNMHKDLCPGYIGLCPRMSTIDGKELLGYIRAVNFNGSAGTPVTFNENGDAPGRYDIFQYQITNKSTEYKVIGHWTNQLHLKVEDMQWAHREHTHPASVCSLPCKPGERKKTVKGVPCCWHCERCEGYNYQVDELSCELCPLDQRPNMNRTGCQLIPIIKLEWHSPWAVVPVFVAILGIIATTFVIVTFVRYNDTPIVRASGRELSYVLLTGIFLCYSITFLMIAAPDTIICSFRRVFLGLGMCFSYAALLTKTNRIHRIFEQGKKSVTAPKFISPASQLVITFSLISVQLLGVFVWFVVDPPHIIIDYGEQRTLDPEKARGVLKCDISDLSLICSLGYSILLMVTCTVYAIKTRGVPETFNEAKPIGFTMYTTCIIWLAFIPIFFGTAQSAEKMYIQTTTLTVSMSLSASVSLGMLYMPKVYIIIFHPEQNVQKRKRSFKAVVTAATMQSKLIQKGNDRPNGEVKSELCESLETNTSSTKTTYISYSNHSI", "conditions": "antagonist; read-out: 1050 values on inhibition of glutamate stimulated inositol phosphate accumulation, mGluR8; cited from earlier work"}, "mGluR6": {"biological_target": "mGluR6 (Homo sapiens, UniProt O15303)", "sequence (O15303 25-877)": "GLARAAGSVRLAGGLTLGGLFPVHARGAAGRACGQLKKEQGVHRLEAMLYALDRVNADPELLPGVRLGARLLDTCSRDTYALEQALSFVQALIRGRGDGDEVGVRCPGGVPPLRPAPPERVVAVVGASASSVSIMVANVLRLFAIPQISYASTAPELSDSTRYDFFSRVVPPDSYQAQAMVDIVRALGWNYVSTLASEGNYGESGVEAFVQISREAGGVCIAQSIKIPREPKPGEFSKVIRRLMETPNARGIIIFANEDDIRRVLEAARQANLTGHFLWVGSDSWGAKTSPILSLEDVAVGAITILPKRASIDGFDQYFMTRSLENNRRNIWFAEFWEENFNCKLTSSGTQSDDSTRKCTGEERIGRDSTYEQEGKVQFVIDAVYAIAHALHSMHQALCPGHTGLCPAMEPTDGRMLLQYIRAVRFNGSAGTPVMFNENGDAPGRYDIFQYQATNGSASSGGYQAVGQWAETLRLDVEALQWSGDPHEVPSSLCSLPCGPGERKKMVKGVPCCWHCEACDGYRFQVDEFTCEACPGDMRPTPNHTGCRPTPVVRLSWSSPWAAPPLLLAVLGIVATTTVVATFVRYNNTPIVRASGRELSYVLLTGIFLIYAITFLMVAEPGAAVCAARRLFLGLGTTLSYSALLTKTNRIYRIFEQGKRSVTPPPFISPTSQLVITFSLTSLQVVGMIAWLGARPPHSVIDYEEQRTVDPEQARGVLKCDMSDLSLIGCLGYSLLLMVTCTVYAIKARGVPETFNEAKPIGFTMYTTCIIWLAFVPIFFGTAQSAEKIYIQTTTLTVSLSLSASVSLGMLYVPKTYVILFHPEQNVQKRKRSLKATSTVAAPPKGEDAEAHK", "conditions": "antagonist; read-out: 1050 values on inhibition of glutamate stimulated inositol phosphate accumulation, mGluR6; cited from earlier work"}, "mGluR7 [7]": {"biological_target": "T1, mGluR7", "conditions": "antagonist; read-out: 1050 values on inhibition of glutamate stimulated inositol phosphate accumulation, mGluR7; cited from earlier work"}, "mGluR7 [8]": {"biological_target": "T1, mGluR7", "conditions": "higher for mGluR7; cited from earlier work"}, "mGluR2": {"biological_target": "mGluR2 (Homo sapiens, UniProt Q14416)", "sequence (Q14416 19-872)": "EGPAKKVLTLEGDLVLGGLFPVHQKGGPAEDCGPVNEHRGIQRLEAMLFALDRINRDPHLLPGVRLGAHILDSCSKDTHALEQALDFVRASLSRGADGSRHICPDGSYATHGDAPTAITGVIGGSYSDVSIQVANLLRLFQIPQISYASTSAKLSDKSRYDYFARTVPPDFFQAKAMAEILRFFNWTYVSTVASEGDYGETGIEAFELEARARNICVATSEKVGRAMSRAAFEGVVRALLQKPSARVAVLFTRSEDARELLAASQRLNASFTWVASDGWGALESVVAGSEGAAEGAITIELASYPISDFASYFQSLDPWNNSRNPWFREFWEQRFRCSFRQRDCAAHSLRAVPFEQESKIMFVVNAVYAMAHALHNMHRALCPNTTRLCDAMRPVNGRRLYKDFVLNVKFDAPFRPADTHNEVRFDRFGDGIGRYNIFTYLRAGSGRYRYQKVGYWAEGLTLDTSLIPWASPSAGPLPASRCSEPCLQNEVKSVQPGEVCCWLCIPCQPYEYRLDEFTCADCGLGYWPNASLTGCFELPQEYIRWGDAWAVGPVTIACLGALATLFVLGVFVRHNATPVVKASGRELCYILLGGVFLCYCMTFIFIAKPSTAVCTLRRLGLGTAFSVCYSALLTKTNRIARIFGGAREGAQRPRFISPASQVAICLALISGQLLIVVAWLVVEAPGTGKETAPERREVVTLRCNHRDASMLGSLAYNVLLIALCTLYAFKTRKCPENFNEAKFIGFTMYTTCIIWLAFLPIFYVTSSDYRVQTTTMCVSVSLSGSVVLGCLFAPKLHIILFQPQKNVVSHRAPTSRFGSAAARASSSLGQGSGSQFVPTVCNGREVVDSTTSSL", "conditions": "concentrations of at least 1 μM; cited from earlier work"}, "mGluR8 [9]": {"biological_target": "T4, mGluR8", "conditions": "concentrations of at least 1 μM; cited from earlier work"}, "mGluR3": {"biological_target": "mGluR3 (Homo sapiens, UniProt Q14832)", "sequence (Q14832 23-879)": "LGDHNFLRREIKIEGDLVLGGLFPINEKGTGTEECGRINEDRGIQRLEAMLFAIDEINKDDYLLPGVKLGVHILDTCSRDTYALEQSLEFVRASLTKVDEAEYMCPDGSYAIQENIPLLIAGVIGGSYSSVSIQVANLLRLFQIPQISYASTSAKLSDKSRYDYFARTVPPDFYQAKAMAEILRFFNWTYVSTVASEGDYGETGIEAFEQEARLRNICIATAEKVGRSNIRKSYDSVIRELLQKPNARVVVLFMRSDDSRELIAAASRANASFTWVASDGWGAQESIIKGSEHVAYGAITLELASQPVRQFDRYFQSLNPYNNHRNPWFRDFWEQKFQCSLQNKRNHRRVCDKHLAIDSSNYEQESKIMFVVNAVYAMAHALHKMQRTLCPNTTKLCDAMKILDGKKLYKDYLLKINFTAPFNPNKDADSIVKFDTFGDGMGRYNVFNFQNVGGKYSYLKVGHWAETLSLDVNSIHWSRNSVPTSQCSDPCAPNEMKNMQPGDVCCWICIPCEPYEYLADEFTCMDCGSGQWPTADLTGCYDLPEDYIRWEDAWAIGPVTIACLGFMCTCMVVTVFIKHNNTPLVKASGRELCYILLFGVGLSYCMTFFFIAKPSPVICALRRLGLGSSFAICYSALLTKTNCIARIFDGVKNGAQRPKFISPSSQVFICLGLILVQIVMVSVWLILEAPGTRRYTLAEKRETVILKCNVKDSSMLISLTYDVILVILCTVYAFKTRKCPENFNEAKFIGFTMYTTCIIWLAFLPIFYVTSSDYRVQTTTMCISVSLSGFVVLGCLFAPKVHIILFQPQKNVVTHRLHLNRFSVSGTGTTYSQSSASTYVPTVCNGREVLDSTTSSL", "conditions": "concentrations of at least 1 μM; cited from earlier work"}, "mGluR7 [10]": {"biological_target": "T1, mGluR7", "conditions": "cited from earlier work"}, "mGluR4": {"biological_target": "mGluR4 (Homo sapiens, UniProt Q14833)", "conditions": "concentrations of at least 1 μM; cited from earlier work"}, "mGluR7 [11]": {"biological_target": "T1, mGluR7", "design": "host or cells: CHO cells (printed only for the inverse-agonism experiment, A12)", "conditions": "CHO cells expressing mGluR7; cited from earlier work"}, "mGluR5": {"biological_target": "mGluR5 (Homo sapiens, UniProt P41594)", "conditions": "concentrations of at least 1 μM; cited from earlier work"}, "mGluR1": {"biological_target": "mGluR1 (Homo sapiens, UniProt Q13255)", "conditions": "concentrations of at least 1 μM; cited from earlier work"}, "mGluR7 [12]": {"biological_target": "T1, mGluR7", "conditions": "cited from earlier work", "remark": "listed apart in the source"}, "[13]": {"conditions": "Example 3: person, topical otic drops twice daily, baseline 50 decibel, above 2000 Hz"}}, "note": "Read-outs that look alike come from different tables or passages of the source.", "data": [{"compound": "5-Methyl-3,6-diphenylisoxazolo[4,5-e]pyridin-4(5H)-one [MDIP]", "values": [{"measurement": "inhibition of the L-AP4-induced cAMP response", "setting": "mGluR7 [1]", "value": "inhibited"}, {"measurement": "IC50", "setting": "rat mGluR7 [2]; CHO cells coexpressing rat mGluR7 with G15, read-out: IC50, inhibition of L-AP4-induced intracellular Ca2+ mobilization", "value": 0.02, "unit": "µM"}, {"measurement": "IC50", "setting": "rat mGluR7 [3]", "value": 0.099, "unit": "µM"}]}, {"compound": "N[C@@H](C(=O)O)c1ccc(P(=O)(O)O)cc1", "note": "(racemic) [(+)-PPG, (R,S)-phosphonophenylglycine]", "values": [{"measurement": "EC50", "setting": "human mGluR7b", "value": 48, "unit": "µM"}, {"measurement": "EC50", "setting": "mGluR4a", "value": 3.2, "unit": "µM"}]}, {"compound": "Cl.Cl.c1ccc(C(NCCNC(c2ccccc2)c2ccccc2)c2ccccc2)cc1", "note": "[AMN082, N,N′-dibenzhydryl-ethane-1,2-diamine dihydrochloride]", "values": [{"measurement": "activation of mGluR7", "setting": "mGluR7 [4]", "value": "fully activating"}, {"measurement": "oral activity", "setting": "mGluR7 [5]; in vivo, po", "value": "orally active"}, {"measurement": "blood-brain barrier penetration", "setting": "mGluR7 [5]; in vivo", "value": "penetrate the blood-brain barrier"}, {"measurement": "increase in stress hormone levels in mGluR7 knockout animals", "setting": "mGluR7 [5]; mGluR7 knockout animals", "value": "absent"}, {"measurement": "stress hormone levels", "setting": "mGluR7 [5]; wild-type animals", "value": "robust increase"}, {"measurement": "hearing threshold left ear", "setting": "presbycusis; [13]", "value": 40, "unit": "decibels"}, {"measurement": "hearing threshold right ear", "setting": "presbycusis; [13]", "value": 35, "unit": "decibels"}, {"measurement": "hearing threshold left ear", "setting": "presbycusis; Example 4: person, oral 2 ug 4 times per day, baseline 35 decibel, above 1000 Hz", "value": 25, "unit": "decibels"}, {"measurement": "hearing threshold right ear", "setting": "presbycusis; Example 4: person, oral 2 ug 4 times per day, baseline 40 decibel, above 1000 Hz", "value": 35, "unit": "decibels"}, {"measurement": "hearing in both ears", "setting": "presbycusis; Example 5: person, cochlear osmotic pump 10 ug/hour, after 10 days", "value": "improved"}]}, {"compound": "N[C@H](C(=O)O)C1[C@H](C(=O)O)[C@H]1C(=O)O", "note": "(stereo partly drawn) [DCG-IV, (2S,1'S,2'S)-2-(dicarboxycyclopropyl)glycine]", "values": [{"measurement": "IC50", "setting": "mGluR8 [6]", "value": 32, "unit": "µM"}, {"measurement": "IC50", "setting": "mGluR6", "value": 39.6, "unit": "µM"}, {"measurement": "IC50", "setting": "mGluR7 [7]", "value": 40.1, "unit": "µM"}]}, {"compound": "N[C@@H](CCP(=O)(O)O)C(=O)O", "note": "[L-AP4, L-(+)-2-amino-4-phosphonobutyric acid]", "values": [{"measurement": "concentrations activating mGluR7 relative to those activating mGluRs 4, 6, and 8", "setting": "mGluR7 [8]", "value": "2-3 orders of magnitude"}]}, {"compound": "COc1ccc(-c2cc3onc(-c4ccncc4)c3c(=O)n2C)cc1", "note": "[MMPIP, 6-(4-methoxyphenyl)-5-methyl-3-pyridin-4-ylisoxazolo[4,5-c]pyridin-4(5H)-one]", "values": [{"measurement": "effect on mGluR2", "setting": "mGluR2", "value": "no significant effect"}, {"measurement": "effect on mGluR8", "setting": "mGluR8 [9]", "value": "no significant effect"}, {"measurement": "effect on mGluR3", "setting": "mGluR3", "value": "no significant effect"}, {"measurement": "displacement of [3H]LY341495 bound to mGluR7", "setting": "mGluR7 [10]", "value": "did not displace"}, {"measurement": "effect on mGluR4", "setting": "mGluR4", "value": "no significant effect"}, {"measurement": "forskolin-stimulated cAMP levels in the absence of agonists (inverse agonistic activity)", "setting": "mGluR7 [11]", "value": "further increase"}, {"measurement": "inhibition of the L-AP4-induced cAMP response", "setting": "mGluR7 [1]", "value": "inhibited"}, {"measurement": "maximal response in agonist concentration-response curves in the presence of the compound", "setting": "rat mGluR7 [2]", "value": "reduced"}, {"measurement": "reversibility of antagonism", "setting": "rat mGluR7 [2]", "value": "reversible"}, {"measurement": "effect on mGluR5", "setting": "mGluR5", "value": "no significant effect"}, {"measurement": "IC50", "setting": "rat mGluR7 [3]", "value": 0.22, "unit": "µM"}, {"measurement": "effect on mGluR1", "setting": "mGluR1", "value": "no significant effect"}, {"measurement": "antagonism of AMN082-induced inhibition of cAMP accumulation", "setting": "mGluR7 [12]", "value": "able to antagonize"}]}]}
